Results on 2 compounds are retold here after patent US20130143872A1, “INJECTABLE FORMULATION OF A REVERSE TRANSCRIPTASE INHIBITOR FOR THE TREATMENT CANCER” (priority 2010, published 2013).

The structures appear in SMILES notation. In brackets after ≈: the same amount, converted by molar mass.

The conditions of series [1]: cited from earlier work.
Series [2] can be described thus: Recrystallisation of nevirapine from water-ethanol co-solvent systems: crystal form and crystal habit. It counts as physicochemical.
[3] abbreviates: EtOH:H2O 90:0 ml, water content 0 % v/v.
[4] abbreviates: EtOH:H2O 90:4.7 ml, water content 5 % v/v.
Where [5] appears, read: EtOH:H2O 90:22.5 ml, water content 20 % v/v.
The mark [6] stands for this setting: EtOH:H2O 90:38.6 ml, water content 30 % v/v.
[7] abbreviates: EtOH:H2O 90:60 ml, water content 40 % v/v.
[8] abbreviates: EtOH:H2O 90:90 ml, water content 50 % v/v.
Where [9] appears, read: EtOH:H2O 90:135 ml, water content 60 % v/v.
Setting [10] is: EtOH:H2O 90:210 ml, water content 70 % v/v.
Where [11] appears, read: EtOH:H2O 90:360 ml, water content 80 % v/v.

With `Nc1ncnc2c1ncn2CCOCP(=O)(O)O` [Adefonir], the solubility in water in series [1] is 400 µg/mL (≈ 1460 µM).

Regarding `Cc1ccnc2c1NC(=O)c1cccnc1N2C1CC1` [nevirapine], the “Crystal Habit” value in series [2] (EtOH:H2O 90:0 ml (so in the source), water content 10 % v/v) is on record as “Very small tabular”; in series [2] (setting [3]) it was “Tabular crystals”; in series [2] (setting [4]), “Smaller tabular”; in series [2] (setting [5]) it was “Disorganized”; in series [2] (setting [6]) it was “Disorganized”; in series [2] (setting [7]) it was “Columnar clusters”. Further, the “Crystal Habit” value is “Platy clusters” in series [2] (setting [8]), “Platy crystals” in series [2] (setting [9]), “Platy crystals” in series [2] (setting [10]) and “Very small bladed” in series [2] (setting [11]). In addition, the “Nevirapine Form Obtained” value in series [2] (setting [3]) is “Hemi-Ethanolate”; in series [2] (setting [4]) it was “Hemi-Ethanolate”; in series [2] (setting [5]) it was “Hemi-Hydrate”; in series [2] (setting [6]), “Hemi-Hydrate”; in series [2] (setting [7]), “Hemi-Hydrate”; in series [2] (setting [8]), “Hemi-Hydrate”. For the same compound, the “Nevirapine Form Obtained” value in series [2] (setting [9]) is reported as “Hemi-Hydrate”; in series [2] (setting [10]), “Hemi-Hydrate”; in series [2] (setting [11]) it was “Anhydrous”.
